Test results as given in PubChem BioAssay (NCI).
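Cultured in 96-well plates, cells were exposed to test compound for 48 hours across five concentrations. TGI marks complete inhibition of growth.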

Tests used:
Assay in all cases: DTP human tumour cell line panel, 48 h
HOP-92 NSCLC = tested on: HOP-92 NSCLC
SF-295 CNS = tested on: SF-295 CNS
BT-549 breast = tested on: BT-549 breast
OVCAR-8 ovarian = tested on: OVCAR-8 ovarian
SR leukemia = tested on: SR leukemia
TK-10 renal = tested on: TK-10 renal
HCC-2998 colon = tested on: HCC-2998 colon
UACC-62 melanoma = tested on: UACC-62 melanoma
SF-539 CNS = tested on: SF-539 CNS
SK-MEL-5 melanoma = tested on: SK-MEL-5 melanoma

Row | SMILES | TGI (HOP-92 NSCLC) [µM] | TGI (SF-295 CNS) [µM] | TGI (BT-549 breast) [µM] | TGI (OVCAR-8 ovarian) [µM] | TGI (SR leukemia) [µM] | TGI (TK-10 renal) [µM] | TGI (HCC-2998 colon) [µM] | TGI (UACC-62 melanoma) [µM] | TGI (SF-539 CNS) [µM] | TGI (SK-MEL-5 melanoma) [µM]
1 | O=c1[nH]/c(=C/c2ccc(OCc3ccccc3)cn2)c(=O)[nH]/c1=C/c1cccnc1 | > 100 | 1.65 | > 100 | > 100 | > 100 | > 100 | 3.16 | – | – | –
2 | CC1(C)CC(=O)C2=C(C1)OC1=C(CC(C)(C)CC1=O)C2c1ccccc1Cl (stereo not drawn) | > 100 | > 100 | – | > 100 | > 100 | – | > 100 | > 100 | > 100 | > 100
3 | C[N+]12C=CC=C1C(N1CCCC1)c1sc(-c3ccc(Cl)cc3)cc12 (stereo not drawn) | – | 43.7 | 22 | 33.5 | 50.1 | 40.7 | 29.2 | 28.4 | – | 31.8
4 | CC(C)CCC[C@@H](C)[C@H]1CC[C@H]2[C@@H]3CC=C4CC(OCCCCN(O)CCCSC5OC(CO)C(O)C(O)C5O)CC[C@]4(C)[C@H]3CC[C@]12C (stereo partly drawn) | > 100 | > 100 | – | > 100 | > 100 | > 100 | – | > 100 | 32.8 | > 100
5 | CN(C)/C=C/c1ccnc2c1C(=O)c1ccccc1C2=O | > 100 | 14.3 | 14.9 | 59.1 | – | > 100 | 22.6 | 2.9 | 39.5 | 4.22
6 | COc1cc2c(cc1C)NC(=O)/C2=C/c1c(Cl)n(C)c2ccccc12 | – | 29.4 | 24.4 | 35.8 | – | 30.7 | 20.1 | 26.8 | 56.5 | 22
7 | CCCCCCCCCCCCCCCCCc1nc(C#N)c(N)o1 | > 100 | – | – | 51.8 | 33.3 | > 100 | – | > 100 | – | > 100
8 | CCC1OC(=O)C(C)C(OC2CC(C)(O)C(O)C(C)O2)C(C)C(O)C(C)(O)CC(C)C(=O)C(C)C(O)C1C (stereo not drawn) | > 300 | > 300 | – | > 300 | – | – | > 300 | > 300 | > 300 | > 300
9 | Cc1ccc(-c2c(C#N)c(O)n(NS(=O)(=O)c3ccccc3)c(=O)c2C#N)cc1 | > 100 | > 100 | > 100 | > 100 | – | > 100 | > 100 | > 100 | > 100 | > 100
10 | CCN1CCc2sc3[nH]c(=S)n(C)c(=O)c3c2C1 | > 100 | > 100 | > 100 | > 100 | – | > 100 | > 100 | > 100 | > 100 | > 100
11 | O=S(=O)(N1CCCCN(S(=O)(=O)C(F)(F)F)CCCN(S(=O)(=O)C(F)(F)F)CCCN(S(=O)(=O)C(F)(F)F)CCCCN(S(=O)(=O)C(F)(F)F)CCCN(S(=O)(=O)C(F)(F)F)CCC1)C(F)(F)F | > 100 | 82.1 | 73.2 | > 100 | – | > 100 | > 100 | > 100 | 84.1 | > 100
12 | CC1=CC(=O)C[C@]2(C)[C@@H](O)CC(C(C)CO)C[C@@H]12 (stereo partly drawn) | > 100 | > 100 | > 100 | > 100 | – | > 100 | > 100 | > 100 | > 100 | > 100
13 | Cc1cc(C)n(CN(Cn2nc(C)cc2C)c2ccc(N(Cn3nc(C)cc3C)Cn3nc(C)cc3C)cc2)n1 | 62.2 | 83.8 | 39.2 | 77.4 | > 100 | 69.8 | – | 44.9 | 35.3 | 30.9
14 | CCOc1c(OC)cc(CNNc2nccs2)cc1OC | > 100 | > 100 | > 100 | > 100 | > 100 | > 100 | > 100 | – | > 100 | 92.7
15 | c1ccc(C2(c3cc4ccccc4[nH]3)OCCO2)cc1 | > 100 | > 100 | > 100 | > 100 | > 100 | > 100 | – | > 100 | > 100 | 57
16 | COc1cc2c(oc(=O)c3c4oc([Si](C)(C)C)cc4cc(OC)c23)c2cccc(O)c12 | > 100 | > 100 | – | > 100 | > 100 | > 100 | > 100 | > 100 | > 100 | > 100
17 | O=C1c2ccccc2C(=O)c2c1c1cc(O)ccc1n2Cc1ccc(Cl)cc1Cl | – | 20.1 | 36.9 | 19.1 | > 100 | 27.4 | – | 21.8 | 14.7 | 47.4
18 | Cc1[nH]c(=O)nc2c1C(=O)N(C(C)C)C(NC(C)C)S2 (stereo not drawn) | > 100 | > 100 | – | > 100 | – | > 100 | > 100 | > 100 | > 100 | > 100
19 | C=CCn1c(=O)c(-c2ccccc2)c(O)c2ccccc21 | > 100 | > 100 | > 100 | > 100 | > 100 | > 100 | > 100 | – | > 100 | > 100
20 | Cc1cccc2ns[s+]c12 | > 100 | > 100 | – | > 100 | – | > 100 | > 100 | > 100 | > 100 | > 100
21 | O=C(N/N=C/c1cc(-c2ccccc2Cl)c(-c2ccccc2Cl)o1)c1ccncc1 | > 100 | > 100 | – | – | – | > 100 | – | > 100 | > 100 | –
22 | COC[C@@H](N=Cc1ccc(OC)cc1)C(C)C | – | > 100 | > 100 | > 100 | > 100 | > 100 | – | > 100 | – | > 100
23 | COc1cc(NS(C)(=O)=O)ccc1N1Cc2cnc3ccc4[nH]ccc1c4c23 | > 100 | > 100 | > 100 | > 100 | – | > 100 | – | > 100 | – | 75.8
24 | OB1OCc2ccccc21 | – | 40.9 | > 100 | > 100 | > 100 | > 100 | – | > 100 | 64.4 | > 100
